The test system of series [1] is VCAM-1. Briefly: In Vitro VCAM-1 Assay - Method 1 (TNF-α stimulated endothelial cells, surface VCAM-1 ELISA). Format: cell-based. To be noted: Homo sapiens, Endothelial cell; HAEC or HPAEC, TNF-α 1 ng/ml with compound approximately 16 hours. As for the experimental part: Cell Culture and compound dosing: Cultured primary human aortic (HAEC) or pulmonary (HPAEC) endothelial cells were obtained from Clonetics, Inc., and were used below passage 9. Cells were seeded in 96 well plates such that they would reach 90–95% confluency by the following day. On the following day the cells were stimulated with TNF-α (1 ng/ml) in the presence or absence of compounds dissolved in DMSO such that the final concentration of DMSO is 0.25% or less. To establish a dose curve for each compound, four concentrations in 2- to 5-fold increments were used. Cells were exposed to TNF-α and compounds for approximately 16 hours. The next day the cells were examined under microscope to score for visual signs of toxicity or cell stress.
Following 16 hr exposure to TNF-α and compound the media was discarded and the cells were washed once with Hanks Balanced Salt Solution (HBSS)/Phosphate buffered saline (PBS) (1:1). Primary antibodies against VCAM-1 (0.25 μg/ml in HBSS/PBS+5% FBS) were added and incubated for 30–60 minutes at 37° C. Cells were washed with HBSS/PBS three times, and secondary antibody Horse Radish Peroxidase (HRP)-conjugated goat anti-mouse IgG (1:500 in HBSS/PBS+5% FBS) were added and incubated for 30 minutes at 37° C. Cells were washed with HBSS/PBS four time and TMB substrate were added and incubated at room temperature in the dark until there was adequate development of blue color. The length of time of incubation was typically 5–15 minutes. 2N sulfuric acid was added to stop the color development and the data was collected by reading the absorbance on a BioRad ELISA plate reader at OD 450 nm. The results are expressed as IC50 values (the concentration (micromolar) of compound required to inhibit 50% of the maximal response of the control sample stimulated by TNF-α only). IC50's of tested compounds are tabulated in Biological Table 1.
For orientation: In an ELISA, binding on a coated surface is turned into a signal by an enzyme label.

The next series deals with Balb/C mice. The series is described as follows: In vivo asthma model (ovalbumin-sensitized mice, BAL fluid eosinophilia). To be noted: 25 mg/kg, sc, qd; BALF eosinophilia vs vehicle control. As for the experimental part:
Balb/C mice (6–8 weeks old) were sensitized to ovalbumin (ova) (8 ug ova absorbed in 3.3 mg Alum inject) on days 0 and 5. On day 12, the mice were aerosol challenged with 0.5% ovalbumin dissolved in sterile saline for 1 hr in the AM, and then again in the PM (at least 4 hr apart). On day 14, the mice were anesthetized with ketamine/xylazine/acepromazine cocktail, exsanguinated, and then euthanized. Following blood collection, bronchoaveolar lavage (BAL) was performed on each animal. Total cell counts were conducted on the lavage fluid, which was subsequently diluted with cell media 1:1. Slides of the lavage fluid were made by spinning the samples with a cytospin centrifuge and then air drying. Cell differentials of the lavage fluid were determined by microscopic evaluation of hematoxylin and eosin-stained slides. Data are expressed as the % inhibition of eosinophilia in the BAL fluid compared to the vehicle control. […] The formulations used contained various mixtures of the following excipients (propylene glycol, polyethylene glycol, Tween 80, Glycofurol).

The test system of another series is TNF-α. Briefly: Cytokine screening: LPS-induced secretion of TNF-α from hPBMCs. The format is cell-based. To be noted: Homo sapiens, Biological Table 3; LPS-induced secretion from hPBMN cells; average of at least three determinations. As for the experimental part: Fresh cryopreserved hPBMCs (1 million cells/ml; Clonetics, Inc.) were pretreated with test compound for 1 hr in lymphocyte growth media-3 (Clonetics, Inc.), followed by stimulation with 1 μg/ml of LPS for another 2 hr in the presence of test compound. Conditioned media was collected and assayed for secreted TNF-α, IL-1β and […] using commercially available human ELISA kits (R&D Systems). Samples were measured in duplicate and data presented as mean ± standard deviation. Each experiment was repeated at least three times with similar results.

In the next series the test system is Female Lewis rats. Briefly: In vivo rheumatoid arthritis model (Freund's complete adjuvant, paw swelling). The following applies: paw swelling vs vehicle control. How it is done:
Female Lewis rats (200–250 g) were sensitized with Freund's complete adjuvant (100 ug) by subcutaneous injection at the base of the tail. Paw swelling was monitored by measuring the volume of each foot with a plethysmometer on days 5, 8, 12–15. Animals were euthanized on day 15. […] Data is expressed as the % inhibition of paw swelling (AUC of the paw volume vs time curve d5–15) compared with vehicle control. The formulations used contained various mixtures of the following excipients (propylene glycol, polyethylene glycol, Tween 80, Glycofurol).

Series [2] relates to VCAM-1. The series is described as follows: In Vitro VCAM-1 Assay - Method 2 (19 h predosing, 4 h TNFα stimulation, surface VCAM-1). The format is cell-based. The following applies: Homo sapiens; HAEC or HPAEC, predosed 19 hours, TNFα 1.5 ng/ml 4 hours. How it is done:
Cultured primary human aortic (HAEC) or pulmonary artery (HPAEC) endothelial cells are obtained from BioWhittaker (formerly Clonetics), and are used below passage 9. Cells are seeded in 96-well plates such that they will reach ˜95% confluency by the following day (i.e.10,000 cells/well). Compounds are reconstituted in DMSO (100%) and sonicated to ensure maximum dissolution. Dilutions are then made in DMSO to 500× of final concentrations. These stocks are then diluted 500× into cell culture media (EGM-2 Mv, BioWhittaker) and placed overnight in tissue culture incubator (37° C., 5% CO2) to allow maximum dissolution).
Media is removed from the cells and replaced with the prewarmed dosing media. Cells are predosed in this manner for 19 hours at 37° C., 5% CO2. Remove media again from the cells and replace with prepared dosing media containing TNFα (1.5 ng/ml). Allow stimulation to continue for 4 hours at 37° C., 5% CO2. Media is removed and saved for evaluation of secreted factors as needed. Cells are used for quantitating surface VCAM-1, followed by Hoescht nuclear stain for cell number to determine toxicity. Assay for surface VCAM-1 continues as described in Method 1. IC50's of tested compounds are tabulated in Biological Table 1.

Regarding `CC(C)(Sc1cc(C(C)(C)C)c(O)c(C(C)(C)C)c1)Sc1cc(C(C)(C)C)c(OCC(=O)NCC(=O)O)c(C(C)(C)C)c1` [Ex-3, (2-{2,6-Di-tert-butyl-4-[1-(3,5-di-tert-butyl-4-hydroxyphenylsulfanyl)-1-methylethylsulfanyl]phenoxy}acetylamino)acetic acid], the IC50 (usually the point on the concentration scale where inhibition reaches its midpoint) with VCAM-1 [1] is 6 µM.

As to `CN(CC(=O)O)C(=O)COc1c(C(C)(C)C)cc(SC(C)(C)Sc2cc(C(C)(C)C)c(O)c(C(C)(C)C)c2)cc1C(C)(C)C` [Ex-4, [(2-{2,6-Di-tert-butyl-4-[1-(3,5-di-tert-butyl-4-hydroxyphenylsulfanyl)-1-methylethylsulfanyl]phenoxy}acetyl)methylamino]acetic acid], the melting point (commonly the temperature of the solid-liquid transition) fell in the range of 115 to 119 °C. Also, the IC50 with VCAM-1 [1] amounted to 7 µM.

Regarding `CC(C)(Sc1cc(C(C)(C)C)c(O)c(C(C)(C)C)c1)Sc1cc(C(C)(C)C)c(OCC(=O)NCCC(=O)O)c(C(C)(C)C)c1` [Ex-5, 3-(2-{2,6-Di-tert-butyl-4-[1-(3,5-di-tert-butyl-4-hydroxyphenylsulfanyl)-1-methylethylsulfanyl]phenoxy}acetylamino)propionic acid], in the series with VCAM-1 [1], the IC50 turned out to be 6 µM.

`CC(C)(Sc1cc(C(C)(C)C)c(O)c(C(C)(C)C)c1)Sc1cc(C(C)(C)C)c(OCC(=O)NC(CO)CO)c(C(C)(C)C)c1` [Ex-6, 2-{2,6-Di-tert-butyl-4-[1-(3,5-di-tert-butyl-4-hydroxyphenylsulfanyl)-1-methyl-ethylsulfanyl]phenoxy}-N-(2-hydroxy-1-hydroxymethyl-ethyl)acetamide]: the melting point is 163 to 164 °C. Moreover, the IC50 in the series with VCAM-1 [1] was determined as 6 µM.

Regarding `CC(C)(Sc1cc(C(C)(C)C)c(O)c(C(C)(C)C)c1)Sc1cc(C(C)(C)C)c(OCC[C@@H](O)CO)c(C(C)(C)C)c1` [Ex-11, 4-{2,6-Di-tert-butyl-4-[1-(3,5-di-tert-butyl-4-hydroxy-phenylsulfanyl)-1-methyl-ethylsulfanyl]-phenoxy}-butane-1,2(R)-diol], the “Inhibition of BAL fluid eosinophilia (asthma model)” value (“Inhibition … (asthma model)” for short) in the series on Balb/C mice was found to be 95 percentage. Moreover, the 50% inhibitory concentration (IC50) with TNF-α is 4.4 µM; with VCAM-1 [1], greater than 50 µM; with VCAM-1 [2] it was 7 µM. In addition, the “Rheumatoid arthritis model (25 mg/kg, sc, qd, inhibition of paw swelling in percentage)” value with Female Lewis rats amounted to 85 percentage.

Molecule `CC(C)(Sc1cc(C(C)(C)C)c(O)c(C(C)(C)C)c1)Sc1cc(C(C)(C)C)c(OCCC[C@H](O)CO)c(C(C)(C)C)c1` [Ex-13, 5-{2,6-Di-tert-butyl-4-[1-(3,5-di-tert-butyl-4-hydroxy-phenylsulfanyl)-1-methyl-ethylsulfanyl]-phenoxy}-pentane-1,2(S)-diol] showed a melting point of 68 to 71 °C. In the series on Balb/C mice, the “Inhibition … (asthma model)” value was determined as 60 percentage. Further, in the series on VCAM-1 [2], half-maximal inhibition (IC50) required 11 µM.

In turn, `CC(C)(Sc1cc(C(C)(C)C)c(O)c(C(C)(C)C)c1)Sc1cc(C(C)(C)C)c(OCCC(O)C(O)CCO)c(C(C)(C)C)c1` (stereo not drawn) [Ex-14, 6-{2,6-Di-tert-butyl-4-[1-(3,5-di-tert-butyl-4-hydroxy-phenylsulfanyl)-1-methyl-ethylsulfanyl]-phenoxy}-hexane-1,3,4-triol] displayed a melting point of 75 to 77 °C. The “Inhibition … (asthma model)” value with Balb/C mice is reported as 84 percentage. The IC50 in the series with VCAM-1 [1] came to 21 µM. The IC50 with VCAM-1 [2] came out at 9.2 µM.

Take `COC[C@H](O)[C@@H](O)COc1c(C(C)(C)C)cc(SC(C)(C)Sc2cc(C(C)(C)C)c(O)c(C(C)(C)C)c2)cc1C(C)(C)C` [Ex-15, 1-{2,6-Di-tert-butyl-4-[1-(3,5-di-tert-butyl-4-hydroxyphenylsulfanyl)-1-methylethylsulfanyl]phenoxy}-4-methoxybutane-2(S),3(S)-diol]: the melting point was 62 to 64 °C.

Consider `COC[C@@H](O)[C@H](O)COc1c(C(C)(C)C)cc(SC(C)(C)Sc2cc(C(C)(C)C)c(O)c(C(C)(C)C)c2)cc1C(C)(C)C` [Ex-16, 1-{2,6-Di-tert-butyl-4-[1-(3,5-di-tert-butyl-4-hydroxyphenylsulfanyl)-1-methylethylsulfanyl]phenoxy}-4-methoxybutane-2(R),3(R)-diol], for which the melting point lay in the range of 68 to 70 °C. The “Inhibition … (asthma model)” value in the series with Balb/C mice turned out to be 44 percentage. For the same molecule, the “Rheumatoid arthritis model (25 mg/kg, sc, qd, inhibition of paw swelling in percentage)” value in the series on Female Lewis rats was determined as 63 percentage.

In the case of `CC(C)(Sc1cc(C(C)(C)C)c(O)c(C(C)(C)C)c1)Sc1cc(C(C)(C)C)c(OCC(CO)CO)c(C(C)(C)C)c1` [Ex-18, 2-{2,6-Di-tert-butyl-4-[1-(3,5-di-tert-butyl-4-hydroxyphenylsulfanyl)-1-methylethyl-sulfanyl]phenoxymethyl}propane-1,3-diol], the “Inhibition … (asthma model)” value in the series with Balb/C mice is reported as 60 percentage. Besides, the IC50 was 4.5 µM in the series on TNF-α, 13 µM with VCAM-1 [1] and 6 µM in the series on VCAM-1 [2]. Also, in the series on Female Lewis rats, the “Rheumatoid arthritis model (25 mg/kg, sc, qd, inhibition of paw swelling in percentage)” value stood at 83 percentage.

On to `COCCOCCOCCOc1c(C(C)(C)C)cc(SC(C)(C)Sc2cc(C(C)(C)C)c(O)c(C(C)(C)C)c2)cc1C(C)(C)C` [Ex-19, 2,6-Di-tert-butyl-4-[1-(3,5-di-tert-butyl-4-{2-[2-(2-methoxyethoxy)-ethoxy]ethoxy}-phenyl-sulfanyl)-1-methylethylsulfanyl]phenol], for which the IC50 in the series on VCAM-1 [1] is greater than 50 µM.

For the molecule `CCOC1O[C@H](CO)[C@@H](COc2c(C(C)(C)C)cc(SC(C)(C)Sc3cc(C(C)(C)C)c(O)c(C(C)(C)C)c3)cc2C(C)(C)C)O1` (stereo partly drawn) [compound 9, 2,6-Di-tert-butyl-4-{1-[3,5-di-tert-butyl-4-(2-ethoxy-5(R)-hydroxymethyl-[1,3]dioxolan-4(R)-ylmethoxy)-phenylsulfanyl]-1-methyl-ethylsulfanyl}-phenol], the melting point is 60 to 62 °C.

`CC(C)(Sc1cc(C(C)(C)C)c(O)c(C(C)(C)C)c1)Sc1cc(C(C)(C)C)c(OCCO)c(C(C)(C)C)c1` [compound 17, 2,6-Di-tert-butyl-4-{1-[3,5-di-tert-butyl-4-(2-hydroxy-ethoxy)-phenylsulfanyl]-1-methyl-ethylsulfanyl}-phenol] yielded a melting point of 146 to 147 °C.

For the origin of these results see patent US7271274B2, “Phenolic antioxidants for the treatment of disorders including arthritis, asthma and coronary artery disease” (AhteroGenics, Inc., priority 2004, dated 2007).
